Assay results published in EP0501641A1, “L-2-oxothiazolidine-4-carboxylate and glutathion esters for the treatment of hepatic diseases” (CLINTEC NUTRITION COMPANY, priority 1991, dated 1992).

Assay: Example 3: post liver transplant supplementation with glutathione methyl ester tablets, plasma glutathione monitored
Assay type: in vivo
Conditions: tablet t.i.d. containing 0.5 g, Normal Range 4.5
Description: A person with primary biliary cirrhosis underwent liver transplant. In addition to routine post-surgery immuno-suppressive and nutritional therapies the patient received a glutathione-containing tablet t.i.d. containing 0.5 g glutathione methyl ester. The goal of the therapy was to normalize plasma and tissue glutathione status.
Plasma glutathione concentration was monitored periodically; values for Week 1 and Week 12 are given below: […]

Structure (SMILES): COC(=O)CNC(=O)[C@H](CS)NC(=O)CC[C@H](N)C(=O)O [glutathione methyl ester]
- Plasma Glutathione (Week 1, person after liver transplant): 1.2 µM
- Plasma Glutathione (Week 12): 3.9 µM
